Structures can show the parent of a compound that is named as a salt.
melting point: 123 to 125 °C
SMILES: NCCc1cccc(Oc2cc(Cl)ccc2N(Cc2ccc(-c3ccccc3)cc2)C(=O)CCC(=O)NCc2ccccc2F)c1 (as salt: hydrochloride) [Example 14, N-[2-[3-(2-aminoethyl)phenoxy]-4-chlorophenyl]-N-(4-biphenylmethyl)-N′-(2-fluorobenzyl)succinamide hydrochloride]

— patent US7160887B1, “Aromatic amine derivatives, their production and use” (Takeda Pharmaceutical Company Limited, priority 1998, dated 2007)
